What was measured:
PI3Kalpha = PI3Kalpha (Homo sapiens (Human), UniProt P42336); assay: HTRF PI3K biochemical assay, alpha isoform (selectivity versus delta); conditions: ratio PI3K-alpha IC50 value/PI3K-delta IC50 value
Method: (§1) HTRF PI3K Biochemical Assay to Measure Intrinsic Potency of Compound Inhibitors
(§2) This loss of signal is nonlinear with respect to both increasing product and time. This non-linear detection will impact accuracy of IC50 calculations; therefore, there is a need for a correction factor to obtain more accurate IC50 values. This correction is derived from a PIP3 standard curve run in a separate assay plate. All data were calculated using the ratio of acceptor (APC) to donor (Europium) fluorescence in each well of the assay plate. […] An IC50 was then calculated fitting the % inhibition data to the equation: % inhibition=min+(Max−min)/1+([inhibitor]/IC50)^n) where min is the % inhibition with inhibitor, max is the signal in DMSO control, and n is the Hill slope.
(§3) The biological data was collected using the methodology described above.
The determination of relative selectivity for a given compound is defined as the relative ratio of the (PI3K-alphaIC50 value/PI3K-delta IC50 value).

PI3Kdelta = PI3Kdelta (Homo sapiens (Human), UniProt O00329); assay: HTRF PI3K biochemical assay, delta isoform; conditions: 0.3 nM enzyme, 100 uM ATP, 50 uM PIP2; form screened (neutral or TFA salt)
Sequence of PI3Kdelta (O00329 whole entry, canonical isoform): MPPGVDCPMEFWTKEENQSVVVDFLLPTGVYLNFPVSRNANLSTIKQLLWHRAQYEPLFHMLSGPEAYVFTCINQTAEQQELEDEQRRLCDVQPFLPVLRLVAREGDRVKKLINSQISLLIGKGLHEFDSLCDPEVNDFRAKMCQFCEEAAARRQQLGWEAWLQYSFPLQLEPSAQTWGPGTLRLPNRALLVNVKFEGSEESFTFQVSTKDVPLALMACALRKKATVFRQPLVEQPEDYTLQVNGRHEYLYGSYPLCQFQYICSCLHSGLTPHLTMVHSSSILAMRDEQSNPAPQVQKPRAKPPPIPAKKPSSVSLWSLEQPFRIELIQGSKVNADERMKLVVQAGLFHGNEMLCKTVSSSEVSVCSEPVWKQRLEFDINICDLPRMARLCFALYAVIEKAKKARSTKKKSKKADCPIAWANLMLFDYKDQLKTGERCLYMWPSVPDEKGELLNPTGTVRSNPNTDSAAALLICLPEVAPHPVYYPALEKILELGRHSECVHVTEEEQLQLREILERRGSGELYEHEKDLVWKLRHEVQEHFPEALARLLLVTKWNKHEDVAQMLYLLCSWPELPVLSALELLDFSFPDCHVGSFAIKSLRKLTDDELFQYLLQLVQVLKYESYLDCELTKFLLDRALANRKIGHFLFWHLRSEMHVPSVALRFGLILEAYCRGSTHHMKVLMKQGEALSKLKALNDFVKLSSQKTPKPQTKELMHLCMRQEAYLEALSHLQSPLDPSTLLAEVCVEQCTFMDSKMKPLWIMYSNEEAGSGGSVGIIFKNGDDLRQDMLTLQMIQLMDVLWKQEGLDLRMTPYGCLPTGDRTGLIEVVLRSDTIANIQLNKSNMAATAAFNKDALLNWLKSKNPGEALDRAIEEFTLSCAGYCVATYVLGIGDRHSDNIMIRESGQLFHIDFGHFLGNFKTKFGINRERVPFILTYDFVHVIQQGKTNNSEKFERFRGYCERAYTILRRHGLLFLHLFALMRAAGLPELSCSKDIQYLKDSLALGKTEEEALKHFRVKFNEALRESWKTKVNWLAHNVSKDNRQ
Sequence of PI3Kdelta (P27986 whole entry partner, canonical isoform): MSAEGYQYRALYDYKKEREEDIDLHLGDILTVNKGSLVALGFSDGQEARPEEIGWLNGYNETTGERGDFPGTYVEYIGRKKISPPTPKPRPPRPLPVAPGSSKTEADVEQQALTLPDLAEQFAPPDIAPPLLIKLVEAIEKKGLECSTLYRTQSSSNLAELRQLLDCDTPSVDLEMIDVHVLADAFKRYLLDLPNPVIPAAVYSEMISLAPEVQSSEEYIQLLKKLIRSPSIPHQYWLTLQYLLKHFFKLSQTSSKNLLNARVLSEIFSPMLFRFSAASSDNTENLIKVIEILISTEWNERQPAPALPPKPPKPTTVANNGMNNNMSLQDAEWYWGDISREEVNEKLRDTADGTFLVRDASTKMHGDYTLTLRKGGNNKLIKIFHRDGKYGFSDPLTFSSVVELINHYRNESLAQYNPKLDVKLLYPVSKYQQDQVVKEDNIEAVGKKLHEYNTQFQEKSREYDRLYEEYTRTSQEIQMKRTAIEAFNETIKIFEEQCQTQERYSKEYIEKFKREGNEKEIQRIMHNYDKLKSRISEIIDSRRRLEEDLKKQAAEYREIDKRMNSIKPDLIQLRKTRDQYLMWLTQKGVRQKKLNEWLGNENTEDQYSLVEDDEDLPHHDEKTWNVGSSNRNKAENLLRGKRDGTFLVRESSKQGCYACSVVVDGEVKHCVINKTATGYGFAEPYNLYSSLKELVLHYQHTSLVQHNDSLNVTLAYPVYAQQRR
Method: as §1, §2, §3

Sequence of PI3Kalpha (P42336 whole entry, canonical isoform): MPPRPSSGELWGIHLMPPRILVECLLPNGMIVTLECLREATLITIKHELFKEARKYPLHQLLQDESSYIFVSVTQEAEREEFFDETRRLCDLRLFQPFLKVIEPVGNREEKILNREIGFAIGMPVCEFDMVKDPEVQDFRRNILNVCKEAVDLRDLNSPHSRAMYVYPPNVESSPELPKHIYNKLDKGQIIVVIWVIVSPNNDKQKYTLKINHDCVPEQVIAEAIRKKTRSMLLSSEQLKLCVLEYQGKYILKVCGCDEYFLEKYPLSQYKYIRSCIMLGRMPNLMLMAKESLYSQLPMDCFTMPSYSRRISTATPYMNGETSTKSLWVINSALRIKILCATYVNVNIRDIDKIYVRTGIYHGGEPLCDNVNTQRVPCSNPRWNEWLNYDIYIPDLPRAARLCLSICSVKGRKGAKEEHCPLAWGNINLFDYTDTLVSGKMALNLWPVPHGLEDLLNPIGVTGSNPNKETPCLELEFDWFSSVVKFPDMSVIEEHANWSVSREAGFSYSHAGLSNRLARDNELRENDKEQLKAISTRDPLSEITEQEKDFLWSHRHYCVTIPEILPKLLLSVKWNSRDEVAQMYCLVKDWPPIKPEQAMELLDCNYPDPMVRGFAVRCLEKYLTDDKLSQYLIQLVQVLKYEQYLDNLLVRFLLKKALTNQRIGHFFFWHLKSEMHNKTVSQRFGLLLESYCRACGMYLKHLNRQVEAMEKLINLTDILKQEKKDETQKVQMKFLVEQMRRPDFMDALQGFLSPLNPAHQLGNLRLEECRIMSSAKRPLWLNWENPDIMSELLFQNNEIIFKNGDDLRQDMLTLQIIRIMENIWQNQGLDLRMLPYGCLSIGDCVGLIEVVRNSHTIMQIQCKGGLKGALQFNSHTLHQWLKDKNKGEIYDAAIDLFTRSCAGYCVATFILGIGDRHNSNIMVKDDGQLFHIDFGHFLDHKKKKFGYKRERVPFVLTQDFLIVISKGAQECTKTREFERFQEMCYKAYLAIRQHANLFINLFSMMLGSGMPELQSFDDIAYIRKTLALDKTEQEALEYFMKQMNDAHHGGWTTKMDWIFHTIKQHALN
Sequence of PI3Kalpha (P27986 whole entry partner, canonical isoform): as the sequence (P27986 whole entry partner, canonical isoform) above

Relative Selectivity versus PI3Kalpha (PI3Kalpha)	IC50 (PI3Kdelta)	Structure (SMILES)
8	133 nM	Cc1ncc(-c2nc3c(-c4cnc5c(c4)C(C)(NCC(C)(C)F)C(=O)N5)ncnc3n2C)cn1 (single isomer, unassigned) [Compound 2-60, (S or R)-5-(9-methyl-8-(2-methylpyrimidin-5-yl)-9H-purin-6-yl)-3-((2-fluoro-2-methylpropyl)amino)-3-methyl-1H-pyrrolo[2,3-b]pyridin-2(3H)-one]
5	156 nM	CCn1c(-c2cnc(C)nc2)nc2c(-c3ccc4c(c3)C3(CCCO3)C(=O)N4)ncnc21 (single isomer, unassigned) [Compound 3-30, (R or S)-5′-(9-ethyl-8-(2-methylpyrimidin-5-yl)-9H-purin-6-yl)-4,5-dihydro-3H-spiro[furan-2,3′-indolin]-2′-one]
>10	4 nM	CCn1c(-c2cnc(C)nc2)nc2c(-c3ccc4c(c3)C(C)(CC(C)C)C(=O)N4)ncnc21 (single isomer, unassigned) [Compound 1-1, 5-(9-Ethyl-8-(2-methylpyrimidin-5-yl)-9H-purin-6-yl)-3-isobutyl-3-methylindolin-2-one]
>10	224 nM	CCn1c(-c2cnc(C)nc2)nc2c(-c3cnc4c(c3)C(C)(CC3CC3)C(=O)N4)ncnc21 (single isomer, unassigned) [Compound 1-15, (R or S)-3-(cyclopropylmethyl)-5-(9-ethyl-8-(2-methylpyrimidin-5-yl)-9H-purin-6-yl)-3-methyl-1,3-dihydro-2H-pyrrolo[2,3-b]pyridin-2-one]
>10	21 nM	CCn1c(-c2cnc(C)nc2)nc2c(-c3ccc4c(c3)C(C)(N[C@H]3C[C@H](OC)C3)C(=O)N4)ncnc21 (single isomer, unassigned) [Compound 2-83, 5-(9-ethyl-8-(2-methylpyrimidin-5-yl)-9H-purin-6-yl)-3-(((1R,3R)-3-methoxycyclobutyl)amino)-3(R or S)-methylindolin-2-one]
>10	1.9 nM	Cc1ncc(-c2nc3c(-c4ccc5c(c4)C4(CCCN4C(=O)C4CC4)C(=O)N5CCO)ncnc3n2C)cn1 (single isomer, unassigned) [Compound 3-18, (R or S)-1′-(cyclopropanecarbonyl)-1-(2-hydroxyethyl)-5-(9-methyl-8-(2-methylpyrimidin-5-yl)-9H-purin-6-yl)spiro[indoline-3,2′-pyrrolidin]-2-one]
>4	2750 nM	CCn1c(-c2cnc(C)nc2)nc2c(-c3ccc4c(c3)C(C)(NCC3CC3)C(=O)N4)ncnc21 (single isomer, unassigned) [Compound 2-33, (R or S)-3-[(cyclopropylmethyl)amino]-5-[9-ethyl-8-(2-methylpyrimidin-5-yl)-9H-purin-6-yl]-3-methyl-1,3-dihydro-2H-indol-2-one]
>10	58 nM	CCn1c(-c2cnc(C)nc2)nc2c(-c3ccc4c(c3)C(C)(N3C[C@H]5C[C@@H]3CO5)C(=O)N4)ncnc21 (mixture of isomers) [Compound 2-26, 5-[9-ethyl-8-(2-methylpyrimidin-5-yl)-9H-purin-6-yl]-3(R and S)-methyl-3-[(1R,4R)-2-oxa-5-azabicyclo[2.2.1]hept-5-yl]-1,3-dihydro-2H-indol-2-one]
>10	99 nM	CCn1c(-c2cnc(C)nc2)nc2c(-c3ccc4c(c3)C3(CCCO3)C(=O)N4)ncnc21 (single isomer, unassigned) [Compound 3-31, (R or S)-5′-(9-ethyl-8-(2-methylpyrimidin-5-yl)-9H-purin-6-yl)-4,5-dihydro-3H-spiro[furan-2,3′-indolin]-2′-one]
>10	13 nM	CCn1c(-c2cnc(C)nc2)nc2c(-c3ccc4c(c3)C(C)(N[C@@H](C)C3CCC3)C(=O)N4)ncnc21 (mixture of isomers) [Compound 2-27, 3-{[(1S)-1-cyclobutylethyl]amino}-5-[9-ethyl-8-(2-methylpyrimidin-5-yl)-9H-purin-6-yl]-3(R and S)-methyl-1,3-dihydro-2H-indol-2-one]
>10	67 nM	CCn1c(-c2cnc(C)nc2)nc2c(-c3ccc4c(c3)C3(CCCN3)C(=O)N4)ncnc21 (single isomer, unassigned) [Compound 3-33, (R or S)-5-(9-ethyl-8-(2-methylpyrimidin-5-yl)-9H-purin-6-yl)spiro[indoline-3,2′-pyrrolidin]-2-one]
>10	2 nM	Cc1ncc(-c2nc3c(-c4ccc5c(c4)C4(CCCN4C(=O)C4CC4)C(=O)N5CCN4CCOCC4)ncnc3n2C)cn1 (single isomer, unassigned) [Compound 3-16, (R or S)-1′-(cyclopropanecarbonyl)-5-(9-methyl-8-(2-methylpyrimidin-5-yl)-9H-purin-6-yl)-1-(2-morpholinoethyl)spiro[indoline-3,2′-pyrrolidin]-2-one]
>10	28 nM	CCn1c(-c2cnc(C)nc2)nc2c(-c3ccc4c(c3)C(C)(NC3CCOCC3)C(=O)N4)ncnc21 (racemic) [Compound 2-25, (R and S)-5-[9-ethyl-8-(2-methylpyrimidin-5-yl)-9H-purin-6-yl]-3-methyl-3-(tetrahydro-2H-pyran-4-ylamino)-1,3-dihydro-2H-indol-2-one]
>10	32 nM	CCn1c(-c2cnc(C)nc2)nc2c(-c3ccc4c(c3)C(C)(N[C@@H](C)C3CC3)C(=O)N4)ncnc21 (single isomer, unassigned) [Compound 2-13, 3-{[(1S)-1-cyclopropylethyl]amino}-5-[9-ethyl-8-(2-methylpyrimidin-5-yl)-9H-purin-6-yl]-3(R or S)-methyl-1,3-dihydro-2H-indol-2-one]
>10	22 nM	CCn1c(-c2cnc(C)nc2)nc2c(-c3ccc4c(c3)C(C)(NC[C@@H]3CCCO3)C(=O)N4)ncnc21 (mixture of isomers) [Compound 2-21, 5-[9-ethyl-8-(2-methylpyrimidin-5-yl)-9H-purin-6-yl]-3(R and S)-methyl-3-{[(2S)-tetrahydrofuran-2-ylmethyl]amino}-1,3-dihydro-2H-indol-2-one]
>10	46 nM	CCn1c(-c2cnc(C)nc2)nc2c(-c3ccc4c(c3)C(C)(N(C)CCOC)C(=O)N4)ncnc21 (racemic) [Compound 2-14, (R and S)-5-[9-ethyl-8-(2-methylpyrimidin-5-yl)-9H-purin-6-yl]-3-[(2-methoxyethyl)(methyl)amino]-3-methyl-1,3-dihydro-2H-indol-2-one]
>10	3 nM	CCn1c(-c2cnc(C)nc2)nc2c(-c3ccc4[nH]c(=O)n(C(C)C5CC5)c4c3)ncnc21 (single isomer, unassigned) [Compound 5-7, (R or S)-1-(1-cyclopropylethyl)-6-[9-ethyl-8-(2-methylpyrimidin-5-yl)-9H-purin-6-yl]-1,3-dihydro-2H-benzimidazol-2-one]
